This is an account of results in patent publication US20170142972A1, “ANTIMICROBIAL COMPOSITION INHIBITS BACTERIA AND FUNGI” (Troy Corporation, priority 2017, published 2017).

Molecules are shown by their SMILES.

The assay concerns Pseudomonas aeruginosa (ATCC #10145), Escherichia coli (ATCC #11229), Enterobacter aerogenes (ATCC #13048), and Alcaligenes faecalis (ATCC #25094). Description: Challenge Method for Quantifying Antibacterial Effectiveness (two 7-day cycles, mixed bacterial inoculum). Particulars: agent alone. The format is cell-based.

Method: In order to quantify the relative antibacterial effectiveness of an antimicrobial composition, samples are prepared by adding various amounts of the antimicrobial composition to identical volumes of a sterile test material. […] Each of the samples is subjected to a two-part challenge procedure and the sample that provides acceptable anti-bacterial protection with the lowest concentration of the antimicrobial composition is identified. Each part of the anti-bacterial challenge consists of a 7-day test cycle. The parts are performed consecutively over 14 test days. […] Challenge testing is accomplished using a mixed bacterial inoculum as the contamination event. These bacteria are Pseudomonas aeruginosa (ATCC #10145), Escherichia coli (ATCC #11229), Enterobacter aerogenes (ATCC #13048), and Alcaligenes faecalis (ATCC #25094). To make the test inoculum, each type of bacteria is grown separately in nutrient broth. Just before use in the challenge test, equal volumes of the four types of bacteria are blended together to make a mixed inoculum. After incubation, both control blanks and samples containing preservative are inoculated with the mixed inoculum. […] Performance ratings of 0, 1, 2, 3 or 4 for each test sample are determined by visual inspection according to the definitions set forth below in Table 1.

Consider `O=c1[nH]sc2ccccc12` [BIT, benzisothiazolinone], for which the “concentration alone required to provide the required protection against bacterial growth on Test Day 14” value is “at least 0.013%” (adhesive) and “at least 0.004%” (paint).
